Values of other authors in US20160346171A1, “ORAL COMPOSITION AND CONFECTION” (TEIKYO UNIVERSITY, priority 2015, published 2016).
Where two headings read alike, the source gives them in different places.

Columns and labels:
[1] = test system: Candida; details: for concentration inhibiting in vitro Candida mycelial growth by 95%: each independently, JP 2013-40156 A
[2] = test system: Candida; details: mouse

Row | SMILES | concentration inhibiting in vitro Candida mycelial growth by 95% [1] | tongue symptoms ([2]; 19.5 mg/mL solution, three times (50 μL at a time) into the oral cavity, Taguchi Y. et al. 2011) | concentration inhibiting in vitro Candida mycelial growth by 50% ([1]; Inoue S. et al. 2012) | tongue symptoms ([2]; 1% (=10 mg/mL) solution, three times (50 μL at a time), JP 2013-40156 A)
1 | CC(C)=CCC/C(C)=C/CO [geraniol] | at least 25 μg/mL |  |  | 
2 | O=CC=Cc1ccccc1 [cinnamaldehyde] |  | ameliorated the tongue symptoms |  | 
3 | CC(C)=CCCC(C)=CC=O [citral] | at least 50 μg/mL |  |  | 
4 | C=CCc1ccc(O)c(OC)c1 [eugenol] | at least 200 μg/mL |  |  | 
5 | CCCCCCCCCC(=O)O [decanoic acid] | at least 3.13 μg/mL |  | ≥ 3.13 µg/mL | ameliorated the tongue symptoms
